≈ marks a conversion by molar mass, not a printed value. Read-outs that look alike come from different tables or passages of the source.
How the values were obtained:
Rhizoctonia solani (Rs) = assay: Growth inhibition assay of fungal pathogens, Rs; type: cell-based; settings: 48 h
[1] = tested on: Fusarium virguliforme (Fv); assay: Growth inhibition assay of fungal pathogens, Fv; type: cell-based; settings: 48 h
Summary of the method: (§1)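 Inhibition percentages reflect 48 h OD600 and visual scores relative to a 2% DMSO control. Test concentrations were 50, 10, 2 ppm or 2, 0.4, 0.08 ppm final, applied to spores in 17% V8 medium.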

human (hACC2) = human (hACC2) (Homo sapiens, UniProt O00763); assay: In vitro ACC inhibition assay (ADP-Glo), hACC2; type: biochemical; settings: 5 nM ACC2, 20 μM ATP, 20 μM acetyl-CoA
Chain of human (hACC2) (O00763 whole entry): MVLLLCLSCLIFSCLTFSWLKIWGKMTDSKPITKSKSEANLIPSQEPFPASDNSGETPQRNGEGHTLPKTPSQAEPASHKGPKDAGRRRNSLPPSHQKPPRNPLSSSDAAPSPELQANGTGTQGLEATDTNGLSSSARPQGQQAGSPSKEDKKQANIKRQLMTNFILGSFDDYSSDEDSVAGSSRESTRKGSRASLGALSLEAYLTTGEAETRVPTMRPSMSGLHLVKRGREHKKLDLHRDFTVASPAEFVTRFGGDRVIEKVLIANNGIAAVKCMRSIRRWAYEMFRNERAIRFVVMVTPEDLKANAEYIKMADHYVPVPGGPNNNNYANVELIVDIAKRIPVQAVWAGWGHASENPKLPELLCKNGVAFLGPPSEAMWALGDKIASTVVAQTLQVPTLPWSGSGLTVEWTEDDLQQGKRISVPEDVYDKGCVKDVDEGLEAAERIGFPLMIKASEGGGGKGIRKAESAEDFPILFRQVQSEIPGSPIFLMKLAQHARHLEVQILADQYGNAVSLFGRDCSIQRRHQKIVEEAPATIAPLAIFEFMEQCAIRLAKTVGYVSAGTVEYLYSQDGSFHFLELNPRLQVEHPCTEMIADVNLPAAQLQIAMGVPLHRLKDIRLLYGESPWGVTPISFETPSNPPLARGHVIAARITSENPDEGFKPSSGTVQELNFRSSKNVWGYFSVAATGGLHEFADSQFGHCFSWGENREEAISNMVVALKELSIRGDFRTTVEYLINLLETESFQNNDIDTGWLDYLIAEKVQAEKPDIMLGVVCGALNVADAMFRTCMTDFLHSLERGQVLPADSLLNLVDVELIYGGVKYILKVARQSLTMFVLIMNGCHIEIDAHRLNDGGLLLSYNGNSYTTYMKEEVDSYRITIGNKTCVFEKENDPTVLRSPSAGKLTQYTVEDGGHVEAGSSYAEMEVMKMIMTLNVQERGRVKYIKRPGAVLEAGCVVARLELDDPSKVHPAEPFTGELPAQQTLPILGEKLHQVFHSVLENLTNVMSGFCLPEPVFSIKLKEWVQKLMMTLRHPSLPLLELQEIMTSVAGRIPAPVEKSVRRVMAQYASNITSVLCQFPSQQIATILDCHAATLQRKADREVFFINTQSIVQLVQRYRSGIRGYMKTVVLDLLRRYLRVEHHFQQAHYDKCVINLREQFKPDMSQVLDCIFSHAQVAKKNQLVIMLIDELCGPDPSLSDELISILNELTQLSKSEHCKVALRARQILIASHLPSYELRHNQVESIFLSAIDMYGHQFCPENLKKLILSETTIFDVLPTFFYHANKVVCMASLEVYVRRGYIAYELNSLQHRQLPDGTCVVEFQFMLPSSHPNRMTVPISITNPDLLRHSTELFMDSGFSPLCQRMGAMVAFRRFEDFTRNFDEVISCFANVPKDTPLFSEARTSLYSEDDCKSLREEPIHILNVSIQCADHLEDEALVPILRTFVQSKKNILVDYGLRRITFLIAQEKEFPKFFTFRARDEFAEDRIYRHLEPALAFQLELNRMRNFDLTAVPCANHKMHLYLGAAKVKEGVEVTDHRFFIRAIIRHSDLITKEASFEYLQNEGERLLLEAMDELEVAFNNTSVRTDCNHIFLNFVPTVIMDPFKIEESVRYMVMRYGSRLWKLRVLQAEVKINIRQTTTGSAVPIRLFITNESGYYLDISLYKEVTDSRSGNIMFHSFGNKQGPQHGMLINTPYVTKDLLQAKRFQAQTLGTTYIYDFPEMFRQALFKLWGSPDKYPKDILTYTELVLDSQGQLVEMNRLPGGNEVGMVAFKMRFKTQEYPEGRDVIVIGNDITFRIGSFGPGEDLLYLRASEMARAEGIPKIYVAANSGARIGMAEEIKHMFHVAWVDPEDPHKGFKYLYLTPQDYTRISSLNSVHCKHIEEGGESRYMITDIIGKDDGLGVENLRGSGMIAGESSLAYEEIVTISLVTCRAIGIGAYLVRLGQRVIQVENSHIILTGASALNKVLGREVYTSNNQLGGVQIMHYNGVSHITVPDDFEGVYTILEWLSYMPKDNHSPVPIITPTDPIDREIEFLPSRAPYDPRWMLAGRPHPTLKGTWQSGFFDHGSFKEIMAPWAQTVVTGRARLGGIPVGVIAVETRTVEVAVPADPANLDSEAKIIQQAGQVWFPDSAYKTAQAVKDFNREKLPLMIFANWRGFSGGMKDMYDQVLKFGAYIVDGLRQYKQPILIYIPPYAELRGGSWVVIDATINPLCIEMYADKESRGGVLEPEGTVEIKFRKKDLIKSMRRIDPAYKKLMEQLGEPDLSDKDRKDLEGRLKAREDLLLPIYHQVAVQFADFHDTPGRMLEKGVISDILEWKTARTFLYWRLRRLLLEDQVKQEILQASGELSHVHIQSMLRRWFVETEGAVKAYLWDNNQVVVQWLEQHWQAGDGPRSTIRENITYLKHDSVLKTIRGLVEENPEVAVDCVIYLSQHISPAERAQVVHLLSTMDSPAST
Experimental: The detailed procedure is as follows. […] 10 μL ADP glo reagent was added. […] 20 μL kinase detection reagent was added.

C. krusei = assay: Antifungal Activity Assay (broth microtiter MIC), C. krusei; type: cell-based, Candida krusei; settings: Pichia kudriavzevii, ATCC6258, 48 h
Summary of the method: (§2)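 CLSI M27-A3 microdilution; RPMI 1640+MOPS; 2.5×10^3 CFU/mL final inoculum; cultures from Sabouraud dextrose agar, 35° C overnight; compound working solution 128 μg/mL from 1 mg/mL DMSO stock; visual MIC at 48 h vs growth control.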

fungal (fACC2) = fungal (fACC2) (UniProt Q00955); settings: read-out: fACC2 (in vitro ACC2 Inhibition Assay, IC50), ADP-Glo, 5 nM ACC2, 20 μM ATP, 20 μM acetyl-CoA
Chain of fungal (fACC2) (Q00955 whole entry): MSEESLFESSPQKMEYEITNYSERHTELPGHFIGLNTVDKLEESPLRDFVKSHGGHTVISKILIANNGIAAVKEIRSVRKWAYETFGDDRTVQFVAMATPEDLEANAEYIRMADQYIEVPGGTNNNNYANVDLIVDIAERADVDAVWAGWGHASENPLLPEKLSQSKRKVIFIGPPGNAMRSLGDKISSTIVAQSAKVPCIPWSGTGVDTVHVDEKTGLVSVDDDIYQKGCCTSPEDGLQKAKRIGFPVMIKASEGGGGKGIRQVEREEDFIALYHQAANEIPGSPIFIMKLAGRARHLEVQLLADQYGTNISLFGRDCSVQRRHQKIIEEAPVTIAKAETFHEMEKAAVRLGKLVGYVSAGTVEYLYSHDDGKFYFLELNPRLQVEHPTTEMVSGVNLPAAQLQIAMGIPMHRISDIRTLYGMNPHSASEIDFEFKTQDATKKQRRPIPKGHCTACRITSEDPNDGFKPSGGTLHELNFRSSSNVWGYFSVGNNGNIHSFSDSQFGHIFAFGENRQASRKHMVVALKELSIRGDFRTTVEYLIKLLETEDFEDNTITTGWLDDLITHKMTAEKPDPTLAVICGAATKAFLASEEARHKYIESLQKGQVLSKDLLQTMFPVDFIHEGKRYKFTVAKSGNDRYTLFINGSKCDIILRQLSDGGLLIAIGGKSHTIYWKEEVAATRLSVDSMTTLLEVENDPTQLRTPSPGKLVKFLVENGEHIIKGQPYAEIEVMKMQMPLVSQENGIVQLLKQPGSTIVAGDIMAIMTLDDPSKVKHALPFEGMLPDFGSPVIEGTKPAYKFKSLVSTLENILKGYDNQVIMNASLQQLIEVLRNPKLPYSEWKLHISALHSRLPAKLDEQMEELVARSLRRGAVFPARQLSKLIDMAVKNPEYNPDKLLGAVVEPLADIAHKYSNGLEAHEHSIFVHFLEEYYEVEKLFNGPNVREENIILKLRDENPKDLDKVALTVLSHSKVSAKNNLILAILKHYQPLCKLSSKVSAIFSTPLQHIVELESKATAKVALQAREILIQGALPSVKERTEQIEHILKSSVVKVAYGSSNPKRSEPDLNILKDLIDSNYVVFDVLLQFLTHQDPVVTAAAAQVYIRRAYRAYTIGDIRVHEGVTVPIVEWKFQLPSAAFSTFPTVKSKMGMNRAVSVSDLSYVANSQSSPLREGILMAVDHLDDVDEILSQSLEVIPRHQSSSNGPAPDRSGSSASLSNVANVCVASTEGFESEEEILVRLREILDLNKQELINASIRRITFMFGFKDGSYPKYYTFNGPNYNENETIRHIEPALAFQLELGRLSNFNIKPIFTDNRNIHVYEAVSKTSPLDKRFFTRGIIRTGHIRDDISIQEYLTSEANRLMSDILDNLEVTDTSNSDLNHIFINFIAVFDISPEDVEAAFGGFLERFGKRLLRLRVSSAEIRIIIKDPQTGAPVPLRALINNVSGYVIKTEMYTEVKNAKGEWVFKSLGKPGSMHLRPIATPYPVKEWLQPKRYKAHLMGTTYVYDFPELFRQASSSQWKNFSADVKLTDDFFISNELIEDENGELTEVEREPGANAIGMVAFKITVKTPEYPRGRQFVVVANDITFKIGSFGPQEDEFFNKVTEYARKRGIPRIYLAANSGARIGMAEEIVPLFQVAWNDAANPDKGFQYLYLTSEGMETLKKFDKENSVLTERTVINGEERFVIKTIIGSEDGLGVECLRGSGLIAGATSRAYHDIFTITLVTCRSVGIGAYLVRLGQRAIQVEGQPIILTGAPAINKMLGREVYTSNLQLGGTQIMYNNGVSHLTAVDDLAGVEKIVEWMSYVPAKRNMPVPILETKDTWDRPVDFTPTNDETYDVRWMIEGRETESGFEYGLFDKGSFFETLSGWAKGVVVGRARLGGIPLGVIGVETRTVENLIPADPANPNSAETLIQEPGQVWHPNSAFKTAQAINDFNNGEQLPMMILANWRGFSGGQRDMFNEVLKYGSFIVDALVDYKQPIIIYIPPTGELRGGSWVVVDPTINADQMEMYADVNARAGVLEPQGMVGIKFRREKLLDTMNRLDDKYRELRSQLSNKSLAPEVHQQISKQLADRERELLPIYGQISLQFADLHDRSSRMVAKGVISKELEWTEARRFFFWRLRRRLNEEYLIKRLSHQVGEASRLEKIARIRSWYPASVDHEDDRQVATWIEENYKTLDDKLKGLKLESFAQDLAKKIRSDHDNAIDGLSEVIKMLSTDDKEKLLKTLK

Septoria tritici (St) = assay: Growth inhibition assay of fungal pathogens, St; type: cell-based; settings: Zymoseptoria tritici, 48 h
Summary of the method: as §1

C. parapsilosis = assay: Antifungal Activity Assay (broth microtiter MIC), C. parapsilosis; type: cell-based, Candida parapsilosis; settings: Lodderomyces parapsilosis, ATCC22019, 48 h
Summary of the method: as §2

[2] = tested on: Fusarium moniliforme (Fm); assay: Growth inhibition assay of fungal pathogens, Fm; type: cell-based; settings: for IC90: Fusarium verticillioides, 48 h, read-out: Concentration at 90% Inhibition Fm
Summary of the method: as §1

[3] = tested on: Phytophthora capsici (Pc); assay: Growth inhibition assay of fungal pathogens, Pc; type: cell-based; settings: 48 h
Summary of the method: as §1

[4] = tested on: Collectotrichum graminicola (Cg); assay: Growth inhibition assay of fungal pathogens, Cg; type: cell-based; settings: 48 h
Summary of the method: as §1

[5] = read-out: Concentration at 90% Inhibition Rs, Rhizoctonia solani, mycelial plugs, growth inhibition at 48 hours vs 2% DMSO control
[6] = read-out: Concentration at 90% Inhibition Rs, Rhizoctonia solani, mycelial plugs, growth inhibition vs 2% DMSO control at 48 hours
[7] = read-out: Concentration at 90% Inhibition Fv, Fusarium virguliforme, growth inhibition at 48 hours vs 2% DMSO control
[8] = read-out: Concentration at 90% Inhibition Fv, Fusarium virguliforme, growth inhibition vs 2% DMSO control at 48 hours
[9] = read-out: MIC, C. krusei ATCC 6258, Table 3a, 3 replicates, MIC recorded at 48 h
[10] = read-out: MIC, C. krusei ATCC 6258, Table 3b (additional results), 3 replicates, MIC recorded at 48 h
[11] = read-out: Concentration at 90% Inhibition St, Septoria tritici, growth inhibition at 48 hours vs 2% DMSO control
[12] = read-out: Concentration at 90% Inhibition St, Septoria tritici, growth inhibition vs 2% DMSO control at 48 hours
[13] = read-out: MIC, C. parapsilosis ATCC 22019, Table 3a, 3 replicates, MIC recorded at 48 h
[14] = read-out: MIC, C. parapsilosis ATCC 22019, Table 3b (additional results), 3 replicates, MIC recorded at 48 h
[15] = Fusarium moniliforme, growth inhibition at 48 hours vs 2% DMSO control
[16] = read-out: Concentration at 90% Inhibition Pc, Phytophthora capsici, growth inhibition at 48 hours vs 2% DMSO control
[17] = read-out: Concentration at 90% Inhibition Pc, Phytophthora capsici, growth inhibition vs 2% DMSO control at 48 hours
[18] = read-out: Concentration at 90% Inhibition Cg, Collectotrichum graminicola, growth inhibition at 48 hours vs 2% DMSO control
[19] = read-out: Concentration at 90% Inhibition Cg, Collectotrichum graminicola, growth inhibition vs 2% DMSO control at 48 hours
[20] = mycelial plugs, growth inhibition at 48 hours vs 2% DMSO control, read-out: Concentration at 90% Inhibition Rs
[21] = mycelial plugs, growth inhibition vs 2% DMSO control at 48 hours, read-out: Concentration at 90% Inhibition Rs
[22] = growth inhibition at 48 hours vs 2% DMSO control, read-out: Concentration at 90% Inhibition Fv
[23] = growth inhibition vs 2% DMSO control at 48 hours, read-out: Concentration at 90% Inhibition Fv
[24] = Table 3b (additional results), ATCC 6258, 3 replicates, MIC recorded at 48 h, read-out: MIC, C. krusei ATCC 6258
[25] = Septoria tritici, growth inhibition at 48 hours vs 2% DMSO control, read-out: Concentration at 90% Inhibition St
[26] = Septoria tritici, growth inhibition vs 2% DMSO control at 48 hours, read-out: Concentration at 90% Inhibition St
[27] = Table 3b (additional results), ATCC 22019, 3 replicates, MIC recorded at 48 h, read-out: MIC, C. parapsilosis ATCC 22019
[28] = Fusarium moniliforme, growth inhibition vs 2% DMSO control at 48 hours
[29] = growth inhibition at 48 hours vs 2% DMSO control, read-out: Concentration at 90% Inhibition Pc
[30] = growth inhibition vs 2% DMSO control at 48 hours, read-out: Concentration at 90% Inhibition Pc
[31] = Collectotrichum graminicola, growth inhibition at 48 hours vs 2% DMSO control, read-out: Concentration at 90% Inhibition Cg
[32] = Collectotrichum graminicola, growth inhibition vs 2% DMSO control at 48 hours, read-out: Concentration at 90% Inhibition Cg

SMILES | IC90 (Rhizoctonia solani (Rs); [5]) [µg/mL] | IC90 (Rhizoctonia solani (Rs); [6]) [µg/mL] | IC90 [1, 7] [µg/mL] | IC90 [1, 8] [µg/mL] | IC50 (human (hACC2); Table 2a) [nM] | IC50 (human (hACC2); Table 2b, additional results) [nM] | MIC (C. krusei; [9]) [µg/mL] | MIC (C. krusei; [10]) [µg/mL] | IC50 (fungal (fACC2); Table 2a) [nM] | IC50 (fungal (fACC2); Table 2b, additional results) [nM] | IC90 (Septoria tritici (St); [11]) [µg/mL] | IC90 (Septoria tritici (St); [12]) [µg/mL] | MIC (C. parapsilosis; [13]) [µg/mL] | MIC (C. parapsilosis; [14]) [µg/mL] | Concentration at 90% Inhibition Fm [2, 15] | IC90 [2] [µg/mL] | IC90 [3, 16] [µg/mL] | IC90 [3, 17] [µg/mL] | IC90 [4, 18] [µg/mL] | IC90 [4, 19] [µg/mL] | also measured
CNC(=O)C(C)(C)n1c(=O)c2c(C)c(-n3nccn3)sc2n(C[C@H](OC(C)C)c2cc(F)ccc2OC)c1=O [Compound I-50, (R)-2-(1-(2-(5-fluoro-2-methoxyphenyl)-2-isopropoxy-ethyl)-5-methyl-2,4-dioxo-6-(2H-1,2,3-triazol-2-yl)-1,4-dihydrothieno[2,3-d]pyrimidin-3(2H)-yl)-N,2-dimethylpropanamide] | 2 (≈ 3.58 µM) | 10 (≈ 17.9 µM) | 0.4 (≈ 0.716 µM) | 0.4 (≈ 0.716 µM) | 5 to 10 | 5 to 10 | 1.1 to 2 (≈ 1.97 to 3.58 µM) | 0.25 to 1 (≈ 0.448 to 1.79 µM) | 1 to 5 | 1 to 5 | > 50 | > 50 | 2.1 to 4 (≈ 3.76 to 7.16 µM) | 2.01 to 4 (≈ 3.6 to 7.16 µM) | A (compound concentration of 0.4 ppm at 90% inhibition of fungal pathogens) | 0.4 (≈ 0.716 µM) | > 50 | > 50 | 2 (≈ 3.58 µM) | 10 (≈ 17.9 µM) | –
COCCCO[C@@H](Cn1c(=O)n(C(C)(C)C(=O)N2CCCC2)c(=O)c2c(C)c(-n3nccn3)sc21)c1cc(F)ccc1OC [Compound I-68, (R)-1-(2-(5-fluoro-2-methoxyphenyl)-2-(3-methoxy-propoxy)ethyl)-5-methyl-3-(2-methyl-1-oxo-1-(pyrrolidin-1-yl)propan-2-yl)-6-(2H-1,2,3-triazol-2-yl)thieno[2,3-d]pyrimidine-2,4(1H,3H)-dione] | – | – | – | – | 5 to 10 | 5 to 10 | – | – | 1 to 5 | 1 to 5 | – | – | – | – | – | – | – | – | – | – | IC90 (Rhizoctonia solani (Rs); [20]): 0.4 µg/mL (≈ 0.636 µM); IC90 (Rhizoctonia solani (Rs); [21]): 0.4 µg/mL (≈ 0.636 µM); IC90 [1, 22]: 0.4 µg/mL (≈ 0.636 µM); IC90 [1, 23]: 0.4 µg/mL (≈ 0.636 µM); MIC (C. krusei; [24]): 2.01 to 4 µg/mL (≈ 3.2 to 6.36 µM); IC90 (Septoria tritici (St); [25]): > 50 µg/mL; IC90 (Septoria tritici (St); [26]): > 50 µg/mL; MIC (C. parapsilosis; [27]): 1.01 to 2 µg/mL (≈ 1.61 to 3.18 µM); IC90 [2, 15]: 0.08 µg/mL (≈ 0.127 µM); IC90 [2, 28]: 0.08 µg/mL (≈ 0.127 µM); IC90 [3, 29]: > 50 µg/mL; IC90 [3, 30]: > 50 µg/mL; IC90 [4, 31]: 2 µg/mL (≈ 3.18 µM); IC90 [4, 32]: 2 µg/mL (≈ 3.18 µM)
COc1ccc(F)cc1[C@H](Cn1c(=O)n([C@@H](C)C(=O)NC2CCC2)c(=O)c2c(C)c(-n3nccn3)sc21)OCCO [Compound I-77, (S)—N-cyclobutyl-2-(1-((R)-2-(5-fluoro-2-methoxyphenyl)-2-(2-hydroxyethoxy)ethyl)-5-methyl-2,4-dioxo-6-(2H-1,2,3-triazol-2-yl)-1,4-dihydrothieno[2,3-d]pyrimidin-3(2H)-yl)propanamide] | – | – | – | – | 10 to 40 | 10 to 40 | – | – | 1 to 5 | 1 to 5 | – | – | – | – | – | – | – | – | – | – | IC90 (Rhizoctonia solani (Rs); [20]): 2 µg/mL (≈ 3.41 µM); IC90 (Rhizoctonia solani (Rs); [21]): 2 µg/mL (≈ 3.41 µM); IC90 [1, 22]: 0.4 µg/mL (≈ 0.682 µM); IC90 [1, 23]: 0.4 µg/mL (≈ 0.682 µM); MIC (C. krusei; Table 3a, ATCC 6258, 3 replicates, MIC recorded at 48 h, read-out: MIC, C. krusei ATCC 6258): 2.1 to 4 µg/mL (≈ 3.58 to 6.82 µM); MIC (C. krusei; [24]): 0.25 to 1 µg/mL (≈ 0.426 to 1.7 µM); IC90 (Septoria tritici (St); [25]): > 50 µg/mL; IC90 (Septoria tritici (St); [26]): > 50 µg/mL; MIC (C. parapsilosis; Table 3a, ATCC 22019, 3 replicates, MIC recorded at 48 h, read-out: MIC, C. parapsilosis ATCC 22019): 1.1 to 2 µg/mL (≈ 1.88 to 3.41 µM); MIC (C. parapsilosis; [27]): 0.25 to 1 µg/mL (≈ 0.426 to 1.7 µM); IC90 [2, 15]: 0.08 µg/mL (≈ 0.136 µM); IC90 [2, 28]: 0.08 µg/mL (≈ 0.136 µM); IC90 [3, 29]: > 50 µg/mL; IC90 [3, 30]: > 50 µg/mL; IC90 [4, 31]: 2 µg/mL (≈ 3.41 µM); IC90 [4, 32]: 10 µg/mL (≈ 17 µM)
COc1ccc(F)cc1[C@H](Cn1c(=O)n(C(C)(C)C(=O)N2CCCCC2)c(=O)c2c(C)c(-n3nccn3)sc21)OC1CCC(=O)CC1 [Compound I-34, (R)-1-(2-(5-fluoro-2-methoxyphenyl)-2-((4-oxocyclohexyl)oxy)ethyl)-5-methyl-3-(2-methyl-1-oxo-1-(piperidin-1-yl)propan-2-yl)-6-(2H-1,2,3-triazol-2-yl)thieno[2,3-d]pyrimidine-2,4(1H,3H)-dione] | 2 (≈ 3 µM) | 2 (≈ 3 µM) | 0.4 (≈ 0.6 µM) | 0.4 (≈ 0.6 µM) | 5 to 10 | 5 to 10 | 0.25 to 1 (≈ 0.375 to 1.5 µM) | 1.01 to 2 (≈ 1.51 to 3 µM) | 1 to 5 | 1 to 5 | > 50 | > 50 | 0.25 to 1 (≈ 0.375 to 1.5 µM) | 0.25 to 1 (≈ 0.375 to 1.5 µM) | AA (compound concentration of 0.08 ppm at 90% inhibition of fungal pathogens) | 0.08 (≈ 0.12 µM) | > 50 | > 50 | 0.4 (≈ 0.6 µM) | 0.4 (≈ 0.6 µM) | –
